pIC50: −log10 of the molar value. Where two headings read alike, the source gives them in different places.
Assays:
[1] = biological target: T1, recombinant human DPP-IV (Homo sapiens, UniProt P27487); assay: Recombinant human DPP-IV activity assay; format: biochemical; details: Gly-Pro-MCA substrate, read-out: IC50 of DPP-IV inhibition
T1 construct: purchased R&D systems, USA
Experimental: DPP-IV inhibition assay was carried out using either 5 ng purified recombinant human DPP-IV (rhDPP-IV) (R&D systems, USA). Recombinant DPP-IV was mixed with ddH2O in an assay buffer (25 mM Tris-HCl, 0.2 M NaCl, 0.1% BSA, pH 7.3). […] The vehicle comprised 1% DMSO in place of test compounds. […] The fluorescence intensity of AMC corresponded to DPP-IV activity.

[2] = biological target: T2, plasma DPP-IV (Rattus norvegicus, UniProt P14740); assay: Plasma DPP-IV activity after single oral dose in fasting normal rats; format: in vivo; details: single oral 4.5 mg/kg
T2 construct: from tissue; host or cells: plasma of Sprague-Dawley rats
T2 sequence (P14740 whole entry): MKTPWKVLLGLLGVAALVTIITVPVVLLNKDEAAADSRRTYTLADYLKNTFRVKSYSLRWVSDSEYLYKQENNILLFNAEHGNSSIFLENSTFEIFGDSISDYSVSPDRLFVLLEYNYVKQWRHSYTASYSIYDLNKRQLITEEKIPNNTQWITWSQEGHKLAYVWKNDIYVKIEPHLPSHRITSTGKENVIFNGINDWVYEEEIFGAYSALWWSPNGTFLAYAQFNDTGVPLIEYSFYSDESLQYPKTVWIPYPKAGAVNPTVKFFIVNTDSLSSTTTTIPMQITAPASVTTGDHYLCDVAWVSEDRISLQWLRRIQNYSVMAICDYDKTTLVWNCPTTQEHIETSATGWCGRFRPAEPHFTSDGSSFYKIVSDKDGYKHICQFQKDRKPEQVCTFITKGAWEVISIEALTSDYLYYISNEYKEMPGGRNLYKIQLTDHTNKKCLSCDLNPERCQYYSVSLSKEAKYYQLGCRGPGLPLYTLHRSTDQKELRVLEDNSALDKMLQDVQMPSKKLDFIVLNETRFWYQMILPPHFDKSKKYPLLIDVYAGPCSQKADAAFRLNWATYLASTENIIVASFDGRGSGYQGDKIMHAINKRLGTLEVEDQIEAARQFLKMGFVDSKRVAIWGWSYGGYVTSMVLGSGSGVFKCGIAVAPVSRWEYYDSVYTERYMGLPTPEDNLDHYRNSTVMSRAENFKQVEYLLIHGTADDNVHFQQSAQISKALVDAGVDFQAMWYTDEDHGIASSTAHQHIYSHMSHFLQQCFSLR
Experimental: Oral glucose load, fasted and random blood samples was collected to measure DPP-IV activity at the 28th days, the 29th days and the last treatment of the CMD-05. DPP-IV enzyme assay was carried out according to a published method. The enzyme reaction was initiated by adding 5 mM Gly-Pro-AMC as a substrate. After 25 min of incubation, fluorescence of AMC released by the reaction was measured using a spectrofluorometer at an excitation wavelength of 353 nm and emission wavelength of 442 nm.
Blood samples were collected after administration of CMD-05 (4.5 mg/kg) at 15 min, 30 min, 1 h, 2 h, 4 h, 12 h, and 24 h to measure the DPP-IV activity in fasting normal rats, the concrete steps refer to the preceding.

[3] = tested on: HbA1c; assay: HbA1c level in blood of model rats; format: in vivo, rat; details: 30 days
Experimental: (§1) To establish model of T2DM, male rats (80–100 g, 9-week-old)[49] were fed high fat diet (HFD) (20% sugar, 10% lard, 10% egg yolk and 60% basal feed) after a week of normal diet. After 4 weeks, rats were injected once with low-dose streptozotocin (Solarbio, China) (STZ, 30 mg/kg i.p) to induce partial insulin deficiency, and then continuously fed HFD for 4 weeks after injection of STZ. Then the model rats were oral administrated drugs for 30 days. The body weights were recorded once a week.
(§2) Oral glucose load, fasted and random blood samples were collected from rats on the 28th days, the 29th days and the last of the treatment of drugs, respectively. Plasma levels of insulin and GLP-1 were measured by ELISA kits (YuanYe, China) according to the manufacturer’s recommendation. The levels of HbA1c, Triglycerides (TG), total cholesterol (TC) and low density lipoprotein cholesterol (LDL-C) in blood samples were measured by commercial assay kits (JianCheng, Nanjing, China) according to the manufacturer’s directions.

[4] = tested on: 293 cells; assay: Cytotoxicity in 293 cells (CCK-8); format: cell-based; details: 12 h
Experimental: (§3) The toxicities of CMD-05 on HT22, 293 and […] cell lines was assessed using Cell Counting Kit-8 (CCK-8) (Biosharp, China). Briefly, the cells were plated on 96-well plates. […] The absorbance at 450 nm was measured using a microplate spectrophotometer.

[5] = tested on: NCI-H716 cells; assay: GLP-1 secretion in NCI-H716 cells; format: cell-based, human; details: 100 μM, 2 h; solvent group 6.6 ± 0.14 pmol/L
Experimental: Human enteroendocrine NCI-H716 cells were maintained in suspension culture as described by the American Type Culture Collection guideline (ATCC). Two days before the experiments, cells were seeded into 12-well culture plates coated with Matrigel at 1 × 10^6 cells per well. Cells were incubated in RPMI 1640 containing 10% FBS at 37 °C for 48 h. […] After incubated for 2 h, GLP-1 concentrations from the supernatants were measured by ELISA kits (YuanYe, China).

[6] = biological target: T2, plasma DPP-IV; assay: Plasma DPP-IV activity determination in model rats; format: in vivo
[7] = tested on: INS-1 cells; assay: Proliferation of INS-1 cells (CCK-8); format: cell-based, rat; details: 1 × 10^−4 and 3 × 10^−5 M, 24 h, CCK-8, vs DMSO
Experimental: The rat insulinoma cell line INS-1 (832/13) was obtained from the Department of endocrinology at 1st affiliated hospital of Chongqing medical university. Cells were cultured in RPMI 1640 (Gibco, USA) (11 mmol/l glucose, 100 units/ml penicillin, […] streptomycin, 10 mmol/l HEPES pH 7.4) supplemented with 10% FBS (Gibco, USA), 2 mmol/l L-glutamine, 1 mmol/l pyruvate, and 50 μmol/l β-mercaptoethanol. […] 10 μl of CCK-8 was then added and incubated at 37 °C and 5% CO2 for 1.5 h and […] (OD) was read at 460 nm with microplate reader. The OD value represents the proliferation activity.

[8] = tested on: model rats (HFD/low-dose STZ, T2DM); assay: Oral glucose tolerance test (OGTT) in HFD/STZ T2DM model rats; format: in vivo, rat; details: for percentage reduction of blood glucose levels in OGTT: model rats
Experimental: as §1
On the 1st day, 19th days and 29th days of treatment, oral glucose tolerance tests for model rats were carried out. […] The blood glucose levels were tested using Johnson one touch Ultra Test Strips on Johnson Performa blood glucose meter.

[9] = tested on: GLP-1; assay: Plasma GLP-1 levels in model rats (ELISA); format: in vivo, rat; details: 4.5 mg/kg, glucose load and random plasma
Experimental: as §1, §2

[10] = tested on: INS-1 cells; assay: Apoptosis of INS-1 cells induced by STZ (Annexin V/PI flow cytometry); format: cell-based, rat; details: STZ-induced, 1, 10, 100 μM, 36 h, concentration dependent
Experimental: The INS cells were seeded into 6-well culture plates at 3 × 10^4 cells per ml and incubated at 37 °C for 24 h. […] After incubated for 36 h, apoptosis was assessed by flow cytometry using the Annexin V-FITC/ propidium iodide (Annexin V/PI) apoptosis detection kit according to the manufacturer’s protocol.

[11] = tested on: LO-2 cells; assay: Cytotoxicity in LO-2 cells (CCK-8); format: cell-based; details: 1 × 10^−4 M, 12 h
Experimental: as §3

[12] = Body weight of model rats; format: in vivo, rat; details: 30 days treatment
Experimental: as §1

[13] = fasted plasma, read-out: plasma DPP-IV inhibition rate
[14] = glucose load plasma, read-out: plasma DPP-IV inhibition
[15] = random plasma, read-out: plasma DPP-IV inhibition

T1 sequence (P27487 whole entry): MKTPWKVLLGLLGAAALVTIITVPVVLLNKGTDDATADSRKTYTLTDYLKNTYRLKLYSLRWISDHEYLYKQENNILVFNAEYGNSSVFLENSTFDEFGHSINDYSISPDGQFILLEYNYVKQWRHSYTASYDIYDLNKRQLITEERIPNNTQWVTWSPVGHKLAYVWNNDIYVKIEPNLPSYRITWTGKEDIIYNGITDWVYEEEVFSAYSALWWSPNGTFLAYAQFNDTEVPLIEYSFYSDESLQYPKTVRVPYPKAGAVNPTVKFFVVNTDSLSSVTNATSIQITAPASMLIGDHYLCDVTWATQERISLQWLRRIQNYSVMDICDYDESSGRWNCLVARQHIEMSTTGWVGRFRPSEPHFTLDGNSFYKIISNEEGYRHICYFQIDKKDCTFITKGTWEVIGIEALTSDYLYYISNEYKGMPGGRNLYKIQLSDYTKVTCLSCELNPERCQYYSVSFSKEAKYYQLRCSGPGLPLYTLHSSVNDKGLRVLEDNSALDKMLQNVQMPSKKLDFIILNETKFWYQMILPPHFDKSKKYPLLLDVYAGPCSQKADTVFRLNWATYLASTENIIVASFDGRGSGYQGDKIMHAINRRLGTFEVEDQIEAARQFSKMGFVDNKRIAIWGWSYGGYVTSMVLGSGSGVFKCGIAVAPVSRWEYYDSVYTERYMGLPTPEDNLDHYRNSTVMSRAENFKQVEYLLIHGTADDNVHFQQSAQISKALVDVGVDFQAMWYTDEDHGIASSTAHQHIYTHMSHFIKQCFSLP

N#C[C@@H]1CCCN1C(=O)CN(C(=O)CCCCCl)C12CC3CC(CC(O)(C3)C1)C2 [CMD-05]
pIC50 [1]: 7.92
inhibition at 4.5 mg/kg ([2]; rat, at 4 hours after the dose, read-out: maximum inhibition of plasma DPP-IV activity): ~90%
duration of plasma DPP-IV inhibition greater than 50% [2]: at least 15 hours
time of maximum inhibition of plasma DPP-IV activity [2]: 4 h
reduction of the level of HbA1c ([3]; 1.5 mg/kg): 1.0%
reduction of the level of HbA1c ([3]; 4.5 mg/kg): 2.2%
cytotoxicity (cell viability) ([4]; 1 × 10^−4 M): slightly reduced cell viability
cytotoxicity (cell viability) ([4]; 3 × 10^−6 to 1 × 10^−5 M): did not induce significant cytotoxicity
GLP-1 secretion [5]: 7.5 ± 0.44 pmol/L
inhibition at 0.5 mg/kg [6, 13]: ~20%
inhibition at 1.5 mg/kg [6, 13]: ~30%
inhibition at 4.5 mg/kg [6, 13]: ~50%
inhibition at 0.5 mg/kg [6, 14]: ~10%
inhibition at 1.5 mg/kg [6, 14]: ~20%
inhibition at 4.5 mg/kg [6, 14]: ~70%
inhibition at 0.5 mg/kg [6, 15]: ~20%
inhibition at 1.5 mg/kg [6, 15]: ~30%
inhibition at 4.5 mg/kg [6, 15]: ~55%
cells viabilities (proliferation) of INS-1 cells [7]: increased
percentage reduction of blood glucose levels in OGTT ([8]; 1.5 mg/kg oral, 1st day): 8.0%
percentage reduction of blood glucose levels in OGTT ([8]; 1.5 mg/kg oral, 19th day): 9.22%
percentage reduction of blood glucose levels in OGTT ([8]; 1.5 mg/kg oral, 29th day): 17.8%
percentage reduction of blood glucose levels in OGTT ([8]; 4.5 mg/kg oral, 1st day): 9.7%
percentage reduction of blood glucose levels in OGTT ([8]; 4.5 mg/kg oral, 19th day): 12.2%
percentage reduction of blood glucose levels in OGTT ([8]; 4.5 mg/kg oral, 29th day): 21.9%
AUC (area under the blood glucose curve) in OGTT ([8]; 1st, 19th and 29th day, vs model group): significant decrease
levels of GLP-1 in plasma [9]: significantly increased
apoptosis of INS-1 cells [10]: reduce of apoptosis
cytotoxicity (cell viability) [11]: no detectable toxic effect
body weights vs model group [12]: no significant difference
